Source: US6413956B1, “Substituted 4-oxo-quinoline-3-carboxamides” (Neurogen Corporation, priority 1999, dated 2002)

For `COCc1ccc2[nH]cc(C(=O)NCc3ccccc3)c(=O)c2c1` [compound 31, N-Benzyl 6-methoxymethyl-4-oxo-1,4-dihydro-quinoline-3-carboxamide], which melting point is on record?
Its melting point is 195 to 196 °C.

With `CCCCNC(=O)c1c[nH]c2c(F)cccc2c1=O.Cl` as the compound, how does the melting point read?
Its melting point is 205 to 207 °C.

For `O=C(NCc1ccc2c(c1)OCO2)c1c[nH]c2ccccc2c1=O` [compound 11, N-Piperonyl 4-oxo-1,4-dihydro-quinoline-3-carboxamide], which melting point is on record?
Its melting point is 207 °C.

For `CCOCCCNC(=O)c1c[nH]c2ccccc2c1=O` [compound 17, N-(3-Ethoxypropyl) 4-oxo-1,4-dihydro-quinoline-3-carboxamide], which melting point is on record?
Its melting point is 141 to 142 °C.

With `CN(C)Cc1ccc(CNC(=O)c2c[nH]c3ccc(Cl)cc3c2=O)cc1.Cl` as the compound, how does the melting point read?
Its melting point is 198 °C (dec.).

Which melting point does the source give for `CCOc1ccc2[nH]cc(C(=O)NCc3cccc(CN(C)Cc4ccccc4)c3)c(=O)c2c1` [compound 108, N-{3-[(N-Benzyl-N-methylamino)methyl]benzyl}-6-ethoxy-4-oxo-1,4-dihydroquinoline-3-carboxamide] here?
Its melting point is 144 to 146 °C.

For `CNC(C)c1cccc(CNC(=O)c2c[nH]c3ccc(Cl)cc3c2=O)c1.Cl` (stereo not drawn), which melting point is on record?
Its melting point is 184 °C (dec.).

With `CCOc1ccc2[nH]cc(C(=O)NCc3ccc(CN(C)CCc4ccccc4)cc3)c(=O)c2c1` [compound 99, N-{4-[(N-Methyl-N-phenethylamino)methyl]benzyl} 6-ethoxy-4-oxo-1,4-dihydroquinoline-3-carboxamide] as the compound, how does the melting point read?
Its melting point is 137 to 139 °C.

For `CCOc1ccc2[nH]cc(C(=O)NCc3ccc4c(c3)OCO4)c(=O)c2c1` [compound 47, N-Piperonyl 6-ethoxy-4-oxo-1,4-dihydro-quinoline-3-carboxamide], which melting point is on record?
The melting point was 226 to 228 °C.

For `Cl.O=C(NCc1cccc(CN2CCOCC2)c1)c1c[nH]c2ccccc2c1=O`, which melting point is on record?
Its melting point is 203 to 208 °C.

With `CCOc1ccc2[nH]cc(C(=O)NCc3ccccn3)c(=O)c2c1` [compound 51, N-[(2-Pyridyl)methyl] 6-ethoxy-4-oxo-1,4-dihydro-quinoline-3-carboxamide] as the compound, how does the melting point read?
The melting point was 221 to 222 °C.

For `CCOc1ccc2[nH]cc(C(=O)NCc3ccc(CN(C)C)cc3)c(=O)c2c1.Cl`, which melting point is on record?
The melting point was 222 to 225 °C (dec.).

With `CCNCc1cccc(CNC(=O)c2c[nH]c3ccc(Cl)cc3c2=O)c1` [compound 28, N-[3-(Ethylaminomethyl)benzyl] 6-chloro-4-oxo-1,4-dihydro-quinoline-3-carboxamide] as the compound, how does the melting point read?
Its melting point is 148 °C (dec.).

For `CCOc1ccc2[nH]cc(C(=O)NCC(C)C)c(=O)c2c1` [compound 56, N-[(2-Methyl)propyl] 6-ethoxy-4-oxo-1,4-dihydro-quinoline-3-carboxamide], which melting point is on record?
Its melting point is 214 to 216 °C.

For `Cl.O=C(NCc1ccccc1)c1c[nH]c2c(F)cccc2c1=O`, which melting point is on record?
The melting point was 235 to 237 °C.

For `CCNCc1ccc(CNC(=O)c2c[nH]c3ccccc3c2=O)cc1.Cl`, which melting point is on record?
Its melting point is 252 °C (dec.).

For `Cc1ccc2[nH]cc(C(=O)NCc3cccc(CN4CCOCC4)c3)c(=O)c2c1` [compound 127, N-[3-(4-Morpholinylmethyl)benzyl]-6-methyl-4-oxo-1,4-dihydroquinoline-3-carboxamide], which melting point is on record?
The melting point was 140 to 144 °C.

Which melting point does the source give for `CCOc1ccc2[nH]cc(C(=O)NC3CCCCC3)c(=O)c2c1` [compound 46, N-Cyclohexyl 6-ethoxy-4-oxo-1,4-dihydro-quinoline-3-carboxamide] here?
The melting point was 191 to 193 °C.

For `COCc1ccc2[nH]cc(C(=O)NCc3cccs3)c(=O)c2c1` [compound 32, N-[(2-Thienyl)methyl] 6-methoxymethyl-4-oxo-1,4-dihydro-quinoline-3-carboxamide], which melting point is on record?
The melting point was 225 to 226 °C.

Which melting point does the source give for `O=C(NCc1ccc(F)cc1)c1c[nH]c2ccc(Cl)cc2c1=O` [compound 73, N-4-Fluorobenzyl 6-chloro-4-oxo-1,4-dihydroquinoline-3-carboxamide] here?
Its melting point is 273 to 276 °C.

With `COCc1ccc2[nH]cc(C(=O)NCc3cccc(CN4CCOCC4)c3)c(=O)c2c1` [compound 105, N-{3-[(4-Morpholinyl)methyl]benzyl} 6-methoxymethyl-4-oxo-1,4-dihydroquinoline-3-carboxamide] as the compound, how does the melting point read?
The melting point was 151 to 153 °C.

For `CCCNC(=O)c1c[nH]c2ccc(OCC)cc2c1=O` [compound 55, N-Propyl 6-ethoxy-4-oxo-1,4-dihydro-quinoline-3-carboxamide], which melting point is on record?
Its melting point is 219 to 221 °C.

With `CCOc1ccc2[nH]cc(C(=O)NCc3ccc(CN(CC)Cc4ccccc4)cc3)c(=O)c2c1` [compound 97, N-{4-[(N-Benzyl-N-ethylamino)methyl]benzyl} 6-ethoxy-4-oxo-1,4-dihydroquinoline-3-carboxamide] as the compound, how does the melting point read?
The melting point was 129 to 132 °C.

For `CCOc1ccc2[nH]cc(C(=O)NCc3ccsc3)c(=O)c2c1` [compound 59, N-[(3-Thienyl)methyl] 6-ethoxy-4-oxo-1,4-dihydro-quinoline-3-carboxamide], which melting point is on record?
The melting point was 203 to 205 °C.

Which melting point does the source give for `CCOc1ccc2[nH]cc(C(=O)NCc3ccc(Cn4ccnc4)cc3)c(=O)c2c1` [compound 66, N-[4-[(1-Imidazolyl)methyl]benzyl} 6-ethoxy-4-oxo-1,4-dihydro-quinoline-3-carboxamide] here?
Its melting point is 161 to 165 °C.

Which melting point does the source give for `CCOCCCNC(=O)c1c[nH]c2ccc(COC)cc2c1=O` [compound 33, N-[(3-Ethoxy)propyl] 6-methoxymethyl-4-oxo-1,4-dihydro-quinoline-3-carboxamide] here?
The melting point was 95 to 97 °C.

Which melting point does the source give for `CCOc1ccc2[nH]cc(C(=O)NCc3ccc(CN(C)Cc4ccccc4)cc3)c(=O)c2c1` [compound 98, N-{4-[(N-Benzyl-N-methylamino)methyl]benzyl} 6-ethoxy-4-oxo-1,4-dihydroquinoline-3-carboxamide] here?
The melting point was 129 to 131 °C.

For `CCOc1ccc2[nH]cc(C(=O)NCc3cccnc3)c(=O)c2c1` [compound 52, N-[(3-Pyridyl)methyl] 6-ethoxy-4-oxo-1,4-dihydro-quinoline-3-carboxamide], which melting point is on record?
The melting point was 222 to 224 °C.

With `CCOc1ccc2[nH]cc(C(=O)NCc3ccccc3F)c(=O)c2c1` [compound 49, N-(2-Fluorobenzyl) 6-ethoxy-4-oxo-1,4-dihydro-quinoline-3-carboxamide] as the compound, how does the melting point read?
The melting point was 237 to 238 °C.

For `CCOc1ccc2[nH]cc(C(=O)NCC3CCCO3)c(=O)c2c1` (stereo not drawn) [compound 44, N-[(2-Tetrahydrofuranyl)methyl] 6-ethoxy-4-oxo-1,4-dihydro-quinoline-3-carboxamide], which melting point is on record?
The melting point was 181 to 182 °C.

For `O=C(NCc1ccco1)c1c[nH]c2ccccc2c1=O` [compound 9, N-[(2-Furanyl)methyl] 4-oxo-1,4-dihydro-quinoline-3-carboxamide], which melting point is on record?
The melting point was 193 to 195 °C.

With `CCOc1ccc2[nH]cc(C(=O)NCc3ccc(CNCCN4CCOCC4)cc3)c(=O)c2c1` [compound 83, N-{4-[[2-(4-Morpholinyl)ethyl]aminomethyl]benzyl} 6-ethoxy-4-oxo-1,4-dihydro-quinoline-3-carboxamide] as the compound, how does the melting point read?
Its melting point is 123 to 127 °C.

Which melting point does the source give for `CCCCCCNC(=O)c1c[nH]c2ccc(OCC)cc2c1=O` [compound 57, N-Hexyl 6-ethoxy-4-oxo-1,4-dihydro-quinoline-3-carboxamide] here?
Its melting point is 181 to 182 °C.

Which melting point does the source give for `CCOc1ccc(CNC(=O)c2c[nH]c3ccccc3c2=O)cc1` [compound 16, N-(4-Ethoxybenzyl) 4-oxo-1,4-dihydro-quinoline-3-carboxamide] here?
Its melting point is 203 to 205 °C.

For `CCOc1ccc2[nH]cc(C(=O)NC)c(=O)c2c1` [compound 58, N-Methyl 6-ethoxy-4-oxo-1,4-dihydro-quinoline-3-carboxamide], which melting point is on record?
The melting point was 279 to 281 °C.

For `O=C(NCc1ccc(F)cc1)c1c[nH]c2ccccc2c1=O` [compound 8, N-(4-Fluorobenzyl) 4-oxo-1,4-dihydro-quinoline-3-carboxamide], which melting point is on record?
Its melting point is 213 to 215 °C.

For `CCOc1ccc2[nH]cc(C(=O)NCc3ccccc3)c(=O)c2c1` [compound 39, N-Benzyl 6-ethoxy-4-oxo-1,4-dihydro-quinoline-3-carboxamide], which melting point is on record?
Its melting point is 209 to 211 °C.

With `CCOc1ccc2[nH]cc(C(=O)NCc3cccc(CN4CCOCC4)c3)c(=O)c2c1` [compound 117, N-[3-(4-Morpholinylmethyl)benzyl]-6-ethoxy-4-oxo-1,4-dihydroquinoline-3-carboxamide] as the compound, how does the melting point read?
The melting point was 173 to 177 °C.

For `COc1ccc2[nH]cc(C(=O)NCc3cccc(CN(C)Cc4ccccc4)c3)c(=O)c2c1` [compound 130, N-[3-(N-Benzyl-N-methylaminomethyl)benzyl]-6-methoxy-4-oxo-1,4-dihydroquinoline-3-carboxamide], which melting point is on record?
The melting point was 186 to 188 °C.

Which melting point does the source give for `CC(C)CCNC(=O)c1c[nH]c2ccccc2c1=O` [compound 4, N-Isoamyl 4-oxo-1,4-dihydro-quinoline-3-carboxamide] here?
Its melting point is 180 to 181 °C.

Which melting point does the source give for `COc1ccc(CNC(=O)c2c[nH]c3ccccc3c2=O)cc1OC` [compound 12, N-(3,4-Dimethoxybenzyl) 4-oxo-1,4-dihydro-quinoline-3-carboxamide] here?
The melting point was 211 to 212 °C.

Which melting point does the source give for `Cl.O=C(NCc1ccc(CN2CCOCC2)cc1)c1c[nH]c2ccccc2c1=O` here?
The melting point was 177 to 180 °C.

Which melting point does the source give for `CCOc1ccc2[nH]cc(C(=O)NCc3cccc(F)c3)c(=O)c2c1` [compound 50, N-(3-Fluorobenzyl) 6-ethoxy-4-oxo-1,4-dihydro-quinoline-3-carboxamide] here?
Its melting point is 210 to 212 °C.

With `CCOc1ccc2[nH]cc(C(=O)NCc3ccc(CN(Cc4ccccc4)Cc4ccccc4)cc3)c(=O)c2c1` [compound 82, N-[4-(Dibenzylaminomethyl)benzyl] 6-ethoxy-4-oxo-1,4-dihydro-quinoline-3-carboxamide] as the compound, how does the melting point read?
The melting point was 162 to 164 °C.

For `CCOc1ccc2[nH]cc(C(=O)NCCCOC(C)C)c(=O)c2c1` [compound 43, N-[(3-Isopropoxy)propyl] 6-ethoxy-4-oxo-1,4-dihydro-quinoline-3-carboxamide], which melting point is on record?
Its melting point is 163 to 164 °C.

Which melting point does the source give for `CCOc1ccc2[nH]cc(C(=O)NCc3ccc(CN4CCCCC4)cc3)c(=O)c2c1` [compound 102, N-{4-[(1-Piperidinyl)methyl]benzyl} 6-ethoxy-4-oxo-1,4-dihydroquinoline-3-carboxamide] here?
The melting point was 172 to 174 °C.

Which melting point does the source give for `CN(C)Cc1cccc(CNC(=O)c2c[nH]c3ccc(Cl)cc3c2=O)c1.Cl` here?
The melting point was 178 °C (dec.).

For `O=C(NCc1cccs1)c1c[nH]c2ccccc2c1=O` [compound 13, N-[(2-Thienyl)methyl] 4-oxo-1,4-dihydro-quinoline-3-carboxamide], which melting point is on record?
Its melting point is 235 to 240 °C.
